For data set [1] the following is noted: in DMF, at 25° C.; data from catalogue of NITTO CHEMICAL INDUSTRY CO., LTD.; cited from earlier work.
A short description of data set [2]: Acetylene stripped from DMF saturated with acetylene on heating. The class given is physicochemical. The settings on record: heated to 0° C. The text has this: The amount of acetylene dissolved in a solvent depends on the temperature of the solvent. Usually increasing the temperature tends to decrease the solubility. […] As mentioned above, the terminology "stripped acetylene" is intended to refer to "acetylene stripped from a solvent".

Data on four molecules can be found in patent US4863493A, “High purity acetylene gas” (Nichigo Acetylene Kabushiki Kaisha, priority 1987, dated 1989).

SMILES strings stand for the structures.

As for `O=C=O` [CO2, carbon dioxide], in data set [1], the Solubility is 4.5 l/l.

Regarding `[C-]#[O+]` [CO], in data set [1], the Solubility is recorded as 0.06 l/l. With `C#C` [C2 H2, acetylene], the Solubility in data set [1] was 31.4 l/l. The “acetylene at S.T.P. stripped from 1 l of DMF” value in data set [2] (DMF saturated with acetylene at -40° C.) is “about 238 l”; in data set [2] (DMF saturated with acetylene at -60° C.) it was “about 382 l”. As for `[HH]` [H2, hydrogen], the Solubility in data set [1] is 0.04 l/l.
